Laboratory results taken from patent US11878975B2, “Substituted indole compounds useful as TLR inhibitors” (BRISTOL-MYERS SQUIBB COMPANY, priority 2017, dated 2024).

Experiments:
Type in all cases: cell-based
human TLR8 = target: T1, human TLR8 (Homo sapiens, UniProt Q9NR97); test: TLR8 inhibition reporter assay (HEK-Blue cells, SEAP reporter, R848 stimulation); conditions: HEK-Blue cells overexpressing human TLR8, SEAP reporter, R848 15.9 μM
T1 construct: host or cells: HEK-Blue cells
T1 sequence (Q9NR97 27-1041): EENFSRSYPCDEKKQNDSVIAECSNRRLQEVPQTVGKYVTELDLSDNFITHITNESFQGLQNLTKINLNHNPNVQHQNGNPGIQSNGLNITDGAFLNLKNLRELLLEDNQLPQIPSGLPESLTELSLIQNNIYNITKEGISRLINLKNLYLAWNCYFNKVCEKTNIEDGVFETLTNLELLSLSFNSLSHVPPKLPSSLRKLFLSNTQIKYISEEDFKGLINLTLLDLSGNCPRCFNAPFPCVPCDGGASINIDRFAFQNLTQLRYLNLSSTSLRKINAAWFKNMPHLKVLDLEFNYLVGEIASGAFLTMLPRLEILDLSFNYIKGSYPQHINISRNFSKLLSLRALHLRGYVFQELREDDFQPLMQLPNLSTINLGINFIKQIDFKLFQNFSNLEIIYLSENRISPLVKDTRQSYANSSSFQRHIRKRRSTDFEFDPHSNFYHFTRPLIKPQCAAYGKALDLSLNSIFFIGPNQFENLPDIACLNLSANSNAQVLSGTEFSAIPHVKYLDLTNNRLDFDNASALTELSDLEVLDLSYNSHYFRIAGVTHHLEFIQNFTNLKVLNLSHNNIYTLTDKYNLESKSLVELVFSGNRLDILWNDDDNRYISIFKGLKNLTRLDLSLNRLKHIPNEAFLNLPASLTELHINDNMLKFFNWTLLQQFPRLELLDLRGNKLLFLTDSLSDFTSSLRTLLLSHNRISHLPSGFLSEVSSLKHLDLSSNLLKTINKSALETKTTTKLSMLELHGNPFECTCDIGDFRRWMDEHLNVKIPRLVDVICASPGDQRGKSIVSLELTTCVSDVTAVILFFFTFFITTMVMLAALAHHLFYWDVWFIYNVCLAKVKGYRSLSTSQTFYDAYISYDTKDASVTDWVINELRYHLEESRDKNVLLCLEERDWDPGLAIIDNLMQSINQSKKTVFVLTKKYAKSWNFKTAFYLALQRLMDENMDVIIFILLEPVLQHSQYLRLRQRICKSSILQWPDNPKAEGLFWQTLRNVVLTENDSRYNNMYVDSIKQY
Procedure, shortened: (§1)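 SEAP readout after 22 h agonist exposure at 37 °C; final agonist levels were 7.5 μM gardiquimod (TLR7), 15.9 μM R848 (TLR8) and 5 nM ODN2006 (TLR9). Inhibitors, spanning 0.05 nM to 50 μM final, were applied 30 min beforehand.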

human TLR7 = target: T2, human TLR7 (Homo sapiens, UniProt Q9NYK1); test: TLR7 inhibition reporter assay (HEK-Blue cells, SEAP reporter, gardiquimod stimulation); conditions: HEK-Blue cells overexpressing human TLR7, SEAP reporter, gardiquimod 7.5 μM
T2 construct: host or cells: HEK-Blue cells
T2 sequence (Q9NYK1 27-1049): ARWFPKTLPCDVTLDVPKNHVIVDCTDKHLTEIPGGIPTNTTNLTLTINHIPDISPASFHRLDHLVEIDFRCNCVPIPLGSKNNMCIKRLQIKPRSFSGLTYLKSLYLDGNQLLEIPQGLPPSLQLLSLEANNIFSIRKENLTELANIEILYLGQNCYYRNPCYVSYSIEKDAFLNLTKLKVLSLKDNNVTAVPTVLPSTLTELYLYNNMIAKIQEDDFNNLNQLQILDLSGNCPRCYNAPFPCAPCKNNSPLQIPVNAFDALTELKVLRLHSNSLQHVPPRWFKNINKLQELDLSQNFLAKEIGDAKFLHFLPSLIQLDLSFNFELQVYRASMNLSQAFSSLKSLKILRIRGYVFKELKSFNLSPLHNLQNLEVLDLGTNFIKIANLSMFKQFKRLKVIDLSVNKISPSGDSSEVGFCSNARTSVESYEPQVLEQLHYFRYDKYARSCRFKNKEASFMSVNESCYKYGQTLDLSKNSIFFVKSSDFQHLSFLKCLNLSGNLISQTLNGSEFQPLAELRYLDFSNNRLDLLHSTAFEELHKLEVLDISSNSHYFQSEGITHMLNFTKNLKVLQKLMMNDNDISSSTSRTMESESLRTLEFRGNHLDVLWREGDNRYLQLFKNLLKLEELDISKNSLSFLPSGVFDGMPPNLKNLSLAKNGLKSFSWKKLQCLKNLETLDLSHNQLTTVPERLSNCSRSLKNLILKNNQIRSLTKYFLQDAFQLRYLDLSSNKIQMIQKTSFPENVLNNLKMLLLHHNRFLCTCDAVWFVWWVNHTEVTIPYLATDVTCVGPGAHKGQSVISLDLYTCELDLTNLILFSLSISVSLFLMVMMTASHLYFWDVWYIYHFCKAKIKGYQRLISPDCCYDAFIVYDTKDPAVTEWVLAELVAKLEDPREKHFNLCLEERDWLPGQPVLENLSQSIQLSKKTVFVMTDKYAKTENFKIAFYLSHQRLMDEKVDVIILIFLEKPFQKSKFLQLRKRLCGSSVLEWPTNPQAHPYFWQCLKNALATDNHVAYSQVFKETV
Procedure, shortened: as §1

human TLR9 = target: T3, human TLR9 (Homo sapiens, UniProt Q9NR96); test: TLR9 inhibition reporter assay (HEK-Blue cells, SEAP reporter, ODN2006 stimulation); conditions: HEK-Blue cells overexpressing human TLR9, SEAP reporter, ODN2006 5 nM
T3 construct: host or cells: HEK-Blue cells
T3 sequence (Q9NR96 26-1032): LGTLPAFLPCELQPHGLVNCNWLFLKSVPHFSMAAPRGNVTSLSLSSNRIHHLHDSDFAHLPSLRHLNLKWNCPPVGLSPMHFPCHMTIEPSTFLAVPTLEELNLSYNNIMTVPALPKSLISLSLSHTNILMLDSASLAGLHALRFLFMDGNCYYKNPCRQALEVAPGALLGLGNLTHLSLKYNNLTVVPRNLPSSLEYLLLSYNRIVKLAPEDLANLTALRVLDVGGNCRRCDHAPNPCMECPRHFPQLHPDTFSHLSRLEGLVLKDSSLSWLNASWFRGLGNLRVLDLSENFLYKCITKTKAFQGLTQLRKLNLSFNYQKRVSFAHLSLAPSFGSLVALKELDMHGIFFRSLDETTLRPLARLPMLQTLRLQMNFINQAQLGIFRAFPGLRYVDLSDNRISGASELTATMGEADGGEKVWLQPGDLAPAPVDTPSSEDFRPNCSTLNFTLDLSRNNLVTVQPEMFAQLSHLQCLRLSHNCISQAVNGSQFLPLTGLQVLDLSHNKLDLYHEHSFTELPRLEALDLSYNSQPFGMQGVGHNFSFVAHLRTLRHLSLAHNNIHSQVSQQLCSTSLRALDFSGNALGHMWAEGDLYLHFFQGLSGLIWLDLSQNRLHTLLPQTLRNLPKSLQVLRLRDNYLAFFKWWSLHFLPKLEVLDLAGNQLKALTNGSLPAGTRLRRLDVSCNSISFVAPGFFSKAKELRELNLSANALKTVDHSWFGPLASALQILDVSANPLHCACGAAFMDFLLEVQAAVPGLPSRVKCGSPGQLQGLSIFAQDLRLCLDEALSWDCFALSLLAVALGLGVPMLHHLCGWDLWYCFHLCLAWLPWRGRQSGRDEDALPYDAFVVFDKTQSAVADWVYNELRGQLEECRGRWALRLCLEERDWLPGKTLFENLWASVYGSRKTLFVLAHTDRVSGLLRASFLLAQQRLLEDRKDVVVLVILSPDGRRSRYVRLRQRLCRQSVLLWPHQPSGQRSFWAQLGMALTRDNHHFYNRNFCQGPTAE
Procedure, shortened: as §1

Structure (SMILES)	IC50 (human TLR8)	IC50 (human TLR7)	IC50 (human TLR9)
Cc1cc(-c2[nH]c3ccc(C4CN(CC(C)(C)O)CCO4)cc3c2C(C)C)cc(C)n1 (stereo not drawn) [Example 358]	1.9 nM	91 nM	4840 nM
CCN(C)CC(=O)N1CCOC(c2ccc3[nH]c(-c4cc(OC)c5ncnn5c4)c(C(C)C)c3c2)C1 (stereo not drawn) [Example 359, 2-(ethyl(methyl)amino)-1-(2-(3-isopropyl-2-(8-methoxy-[1,2,4]triazolo[1,5-a]pyridin-6-yl)-1H-indol-5-yl)morpholino)ethanone]	4.7 nM	0.56 nM	3630 nM
COc1cc(-c2[nH]c3ccc(C4CN(C(=O)CN5CCS(=O)(=O)CC5)CCO4)cc3c2C(C)C)cn2ncnc12 (stereo not drawn) [Example 360]	68 nM	11 nM	> 50000 nM
Cc1cc(-c2[nH]c3ccc(C4CN5CCC4CC5)cc3c2C(C)C)cn2ncnc12 (stereo not drawn) [Example 364]	3.8 nM	0.64 nM	1050 nM
Cc1cc(-c2[nH]c3ccc(C4CN5CCC4CC5)cc3c2C(C)C)cn2ncnc12 (stereo not drawn) [Example 365]	1.6 nM	0.22 nM	745 nM
Cc1cc(-c2[nH]c3ccc(C4CCC5(CC4)NC(=O)NC5=O)cc3c2C(C)C)cc(C)n1 (stereo not drawn) [Example 366, 8-(2-(2,6-dimethylpyridin-4-yl)-3-isopropyl-1H-indol-5-yl)-1,3-diazaspiro[4.5]decane-2,4-dione]	183 nM	6 nM	21700 nM
COc1cc(-c2[nH]c3ccc(C4CNC(C)(C)CO4)cc3c2C(C)C)cn2ncnc12 (stereo not drawn) [Example 368]	1.6 nM	0.45 nM	2480 nM
Cc1c(-c2[nH]c3ccc(C4CNC(C)(C)CO4)cc3c2C(C)C)cn2ncnc2c1C (stereo not drawn) [Example 371]	1.3 nM	0.92 nM	15500 nM
COc1cc(-c2[nH]c3ccc(C4CN(C)C(C)(C)CO4)cc3c2C(C)C)cn2ncnc12 (stereo not drawn) [Example 377]	5.2 nM	2 nM	4720 nM
COCCN1CC(c2ccc3[nH]c(-c4cc(C)c5ncnn5c4)c(C(C)C)c3c2)OCC1(C)C (stereo not drawn) [Example 383]	41 nM	9 nM	13700 nM
Cc1cc(-c2[nH]c3ccc(C4CN(CCS(C)(=O)=O)C(C)(C)CO4)cc3c2C(C)C)cn2ncnc12 (stereo not drawn) [Example 384]	11 nM	13 nM	30100 nM
Cc1cc(-c2[nH]c3ccc(C4CN(CC(C)(C)O)C(C)(C)CO4)cc3c2C(C)C)cn2ncnc12 (stereo not drawn) [Example 385]	48 nM	14 nM	20400 nM
Cc1c(-c2[nH]c3ccc(C4CN(CC(=O)N(C)C)C(C)(C)CO4)cc3c2C(C)C)cn2ncnc2c1C (stereo not drawn) [Example 387]	44 nM	86 nM	> 50000 nM
CNC(=O)CN1CC(c2ccc3[nH]c(-c4cn5ncnc5c(C)c4C)c(C(C)C)c3c2)OCC1(C)C (stereo not drawn) [Example 388]	41 nM	37 nM	> 50000 nM
CNC(=O)CN1CC(c2ccc3[nH]c(-c4cn5ncnc5c(C)c4C)c(C(C)C)c3c2)OCC1(C)C (stereo not drawn) [Example 389]	51 nM	22 nM	> 50000 nM

The remaining molecules from weak to strong by IC50 (human TLR8), led by results:

IC50 (human TLR8)	IC50 (human TLR7)	IC50 (human TLR9)	Structure (SMILES)
176 nM	50 nM	> 50000 nM	COc1cc(-c2[nH]c3ccc(C4CN(C5COC5)C(C)(C)CO4)cc3c2C(C)C)cn2ncnc12 (stereo not drawn) [Example 378]
110 nM	20 nM	5900 nM	COc1cc(-c2[nH]c3ccc(C4CN(C(=O)CN(C)C)C(C)(C)CO4)cc3c2C(C)C)cn2ncnc12 (stereo not drawn) [Example 374]
49 nM	34 nM	> 50000 nM	Cc1c(-c2[nH]c3ccc(C4CN(CC(=O)N(C)C)C(C)(C)CO4)cc3c2C(C)C)cn2ncnc2c1C (stereo not drawn) [Example 386]
5.4 nM	36 nM	1970 nM	Cc1cc(-c2[nH]c3ccc(C4CN(CC(C)(C)O)CCO4)cc3c2C(C)C)cc(C)n1 (stereo not drawn) [Example 357]
3.4 nM	15 nM	7170 nM	COCCN1CC(c2ccc3[nH]c(-c4cc(C)c5ncnn5c4)c(C(C)C)c3c2)OCC1(C)C (stereo not drawn) [Example 382]
2.5 nM	0.91 nM	5320 nM	COc1cc(-c2[nH]c3ccc(C4CN(C(=O)CNC5(C)COC5)CCO4)cc3c2C(C)C)cn2ncnc12 (stereo not drawn) [Example 361]
1.4 nM	5 nM	28900 nM	Cc1cc(-c2[nH]c3ccc(C4CN(CC(C)(C)O)CCO4)cc3c2C(C)C)cn2ncnc12 (stereo not drawn) [Example 355, 1-(2-(3-isopropyl-2-(8-methyl-[1,2,4]triazolo[1,5-a]pyridin-6-yl)-1H-indol-5-yl)morpholino)-2-methylpropan-2-ol]
0.48 nM	0.5 nM	2620 nM	COc1cc(-c2[nH]c3ccc(C4CNC(C)(C)CO4)cc3c2C(C)C)cn2ncnc12 (stereo not drawn) [Example 369]
0.35 nM	2 nM	14800 nM	Cc1c(-c2[nH]c3ccc(C4CNC(C)(C)CO4)cc3c2C(C)C)cn2ncnc2c1C (stereo not drawn) [Example 370]
